Assays:
Type in all cases: cell-based
[1] = test system: CD117-negative control cells (U937); experiment: Apoptosis assay, Annexin V staining, flow cytometry; settings: 10 nM MTX payload or equal molar
Method: (§1) Treated cells also were investigated by apoptosis assay. Annexin V-APC staining (BD Biosciences, San Jose, Calif.) was performed according to the manufacturer's instructions. The cell samples were analyzed using a FACS caliber (BD Biociences, San Jose, Calif., USA) flow cytometry equipped with cellquest software.

HEL cells = experiment: as above; settings: 10 nM MTX payload or equal molar
Method: as §1

[2] = test system: CD117-negative control cells (U937); experiment: Cell growth inhibition by MTT assay
Method: (§2) Cell growth inhibition was monitored by MTT (MTT (3-[4,5-dimethylthiazol-2-yl]-2,5-diphenyltetrazolium bromide) assay post treatment. Cells (5000) were treated by CD117 Apt-MTX or equal molar free MTX in RPMI 1640 medium for 2 h. After replacement with fresh medium containing 10% serum, cells were cultured for an additional 48 hours and then 10 μl of MTT solution (5 mg/mL in PBS) were added to each well. After a further 4 h of incubation, the culture medium was removed and the formazan crystals in the cells were solubilized with 100 μl of DMSO for 15 minutes. The UV absorbance at 570 nm was measured with a microplate reader.

AML cells (HEL) = experiment: Cell growth inhibition by MTT assay
Method: as §2

For CN(Cc1cnc2nc(N)nc(N)c2n1)c1ccc(C(=O)N[C@@H](CCC(=O)O)C(=O)O)cc1 [free MTX, Methotrexate], the “cell apoptosis / toxicity” value [1] was “minimal effect on both HEL and control cells”, the cell apoptosis (HEL cells) was “minimal effect on both HEL and control cells” and the “effect on cell proliferation (in words)” value ([2]; U937, 10 nM MTX, treated 2 hours, cultured 48 hr) was “minimal effect on both cells”. The inhibition ([2]; U937, 100 nM final concentration) was “about 30%”, the inhibition (AML cells (HEL); 100 nM final concentration) was “about 30%” and the “effect on cell proliferation (in words)” value (AML cells (HEL); equal molar (10 nM MTX), treated 2 hours, cultured 48 hr) was “minimal effect on both cells”.

Reference: patent US10683506B2, “CD117 ligand-drug conjugates for targeted cancer therapy” (THE METHODIST HOSPITAL SYSTEM, priority 2015, dated 2020)
